# Test results from patent US10092500B2, “Oral care compositions” (BASF SE, priority 2014, dated 2018).
# Tests used:
# S. mutans (ATCC#25175) = test: Inhibition of bacterial acid production (Bromo Cresol Purple broth, OD 588/427); type: cell-based; conditions: for Inhibition of bacterial acid production, in words: change of OD 588 / OD 427 (pH indicator)
# Protocol: Method to observe the acid production of S. mutans in a medium containing a pH indicator and glucose. Observe how xylitol and the example polymers affect acid production: A culture of S. mutans (ATCC#25175) is grown statically overnight in 10 mL liquid broth (BHI) at 37° C. […] The no treatment control has 20 μl water added. To each experimental well 180 of the inoculated BCP broth is added. To the no inoculum control 20 μl water and 20 μl filter sterilized overnight culture broth are added. […] Both wavelengths are measured every hour for several hours but before evaporation became an issue. The plates are shaken for 10 seconds before reading.
# [1] = tested on: Multispecies saliva derived Biofilm; test: Substantivity: multispecies saliva derived biofilm growth on pre-treated, rinsed hydroxyapatite surfaces; type: cell-based, human saliva; conditions: 24 hr on pre-treated hydroxyapatite
# Protocol: The peg lids are transferred to a clear 96 well plate containing 200 μl of the designated treatments below in Jordan's with 5% sucrose. This peg/plate assembly is shaken for 5 mins and then incubated for 25 mins aerobically at 37 C. After 30 mins of treatment the two pegs is transferred to a 96 well plate containing 200 μl of water and it is rinsed for 10 min at 500 rpm. […] After incubation the peg lids are transferred to a rinse plate containing 200 μl of water for 5 minutes and then transferred to white 96 well plate containing 200 μl Bac-titer-Glo, this is shaken for 5 minutes and read for luminescence.
# [2] = tested on: Streptococcus mutans Biofilm; test: Substantivity: S. mutans biofilm growth on pre-treated, rinsed hydroxyapatite surfaces; type: cell-based, S. mutans (ATCC#25175); conditions: 24 hr on pre-treated hydroxyapatite
# Protocol: Method to evaluate the substantivity of polymers to hydroxy apatite surfaces and the effects these polymers have on the growth of Streptococcus mutans and Saliva derived biofilms: S. mutans (ATCC#25175) is inoculated into 10 mL BHI and incubated statically at 37° C. overnight. […] Hydroxy apatite coated peg lids are pellicle treated with sterile artificial saliva 200 μl/per well of a 96 well clear plate for 30 minutes at 37° C. aerobically. The peg lids are transferred to a clear 96 well plate containing 200 μl of the designated treatments below in Jordan's with 5% sucrose. […] After 30 mins of treatment the two pegs is transferred to a 96 well plate containing 200 μl of water and it is rinsed for 10 min at 500 rpm. […] After incubation the peg lids are transferred to a rinse plate containing 200 μl of water for 5 minutes and then transferred to white 96 well plate containing 200 μl Bac-titer-Glo, this is shaken for 5 minutes and read for luminescence.
# [3] = tested on: Streptococcus mutans biofilm; test: Prevention of S. mutans biofilm development on hydroxy apatite pegs (Bac-titer-Glo luminescence); type: cell-based; conditions: Controls column; 2% xylitol; 24 hr growth; negative = increase over control
# Protocol: To evaluate the multispecies saliva and S. mutans biofilm preventing activity of polymers and control combinations of condensants S. mutans 25175 is inoculated into 10 mL BHI and incubated statically at 37° C. overnight. […] Hydroxy apatite coated peg lids are pellicle treated with sterile artificial saliva 200 μl/per well of a 96 well clear plate for 30 minutes at 37° C. aerobic. […] Test solutions are added to a desired final concentration and water is added to bring the final volume to 200 μl.
# [4] = tested on: multispecies saliva biofilm; test: Prevention of multispecies saliva biofilm development on hydroxy apatite pegs (Bac-titer-Glo luminescence); type: cell-based, pooled human saliva; conditions: Controls column; 2% xylitol; 24 hr growth
# Protocol: To evaluate the multispecies saliva and S. mutans biofilm preventing activity of polymers and control combinations of condensants Hydroxy apatite (HA) coated surfaces of a 96 peg lid (Biosurface Technologies, Bozeman, Mont.) are pellicle treated with pooled human saliva 200 μl/per well of a 96 well clear plate for 30 minutes at 37° C. aerobically. Into each well of the growth plate, clear 96 well plate, 160 μl inoculated Brain Heart Infusion (BHI) broth is added. Test solutions are added to a desired final concentration and water is added to bring the final volume to 200 μl.
# 48 hour saliva biofilms = test: Disruption of established 48 hour saliva biofilms; type: cell-based, pooled human saliva; conditions: treatment for 5 minutes; Active = 1000 ppm e-polylysine, Chelate = 0.1% Trilon Ca, Polymer = 1%; negative = increase over control
# Protocol: Method to screen combinations of actives, example polymers and chelates to identify potential synergies for biofilm disruption: Polystyrene pegs are pellicle treated with fresh pooled human saliva for 30 minutes at 37° C. aerobically. […] The pegs are added to the growth media and incubated anaerobically 37° C. At 24 hr. the pegs are removed and transferred to a fresh plate containing 200 μl of sterile BHI. And incubated anaerobically for another 24 hr at 37° C. […] Following a 5 minute rinse at room temperature, the pegs are transferred to a treatment plate containing combinations of actives, chelate and polymers. This is followed a 5 minute treatment (shaking at 500 rpm). The treated pegs are transferred to a white 96 well plate containing 200 μl Bac-titer-Glo reagent—this is incubated at room temperature for 5 minutes (shaking) and read on a plate reader for luminescence.
compound,measurement,setting,value
O=C(O)CC(O)(CC(=O)O)C(=O)O [citric acid],Mean Delta OD588 (stdev),"S. mutans (ATCC#25175); 1% treatment, pH 7.0",0.196 (0.029)
same,"Inhibition of bacterial acid production, in words",S. mutans (ATCC#25175),no or little change demonstrating acid inhibiting effects
"N=C(N)NCCC[C@H](N)C(=O)O [Arginine, L-arginine]",% decrease in biofilm as compared to growth control (negative indicates increased biofilm),[1]; % treatment 0.070%,−28%
same,% decrease in biofilm as compared to growth control (negative indicates increased biofilm),[1]; % treatment 0.140%,−20%
same,% decrease in biofilm as compared to growth control (negative indicates increased biofilm),[1]; % treatment 0.280%,−24%
same,% decrease in biofilm as compared to growth control (negative indicates increased biofilm),[1]; % treatment 0.560%,−22%
same,% decrease in biofilm as compared to growth control (negative indicates increased biofilm),[1]; % treatment 1.120%,49%
same,% decrease in biofilm as compared to growth control (negative indicates increased biofilm),[2]; % treatment 0.070%,−40%
same,% decrease in biofilm as compared to growth control (negative indicates increased biofilm),[2]; % treatment 0.140%,−18%
same,% decrease in biofilm as compared to growth control (negative indicates increased biofilm),[2]; % treatment 0.280%,−59%
same,% decrease in biofilm as compared to growth control (negative indicates increased biofilm),[2]; % treatment 0.560%,−53%
same,% decrease in biofilm as compared to growth control (negative indicates increased biofilm),[2]; % treatment 1.120%,−29%
same,Mean Delta OD588 (stdev),"S. mutans (ATCC#25175); 1% treatment, pH 6.3",1.054 (0.13)
same,"Inhibition of bacterial acid production, in words",S. mutans (ATCC#25175),no acid inhibiting effects
"OC[C@@H](O)[C@H](O)[C@@H](O)CO [Xylitol, xylitol]","Prevention of Streptococcus mutans biofilm development, reduction from the untreated control",[3],−1%
same,"Prevention of multispecies saliva biofilm development, reduction from the untreated control",[4],17%
same,% decrease in biofilm as compared to growth control (negative indicates increased biofilm),[1]; % treatment 1.120%,14%
same,% decrease in biofilm as compared to growth control (negative indicates increased biofilm),[1]; % treatment 2.000%,12%
same,% decrease in biofilm as compared to growth control (negative indicates increased biofilm),[2]; % treatment 1.120%,−11%
same,% decrease in biofilm as compared to growth control (negative indicates increased biofilm),[2]; % treatment 2.000%,−15%
same,Mean Delta OD588 (stdev),S. mutans (ATCC#25175); 0.1% treatment,0.993 (0.099)
same,Mean Delta OD588 (stdev),S. mutans (ATCC#25175); 0.5% treatment,0.841 (0.119)
same,Mean Delta OD588 (stdev),S. mutans (ATCC#25175); 1% treatment,0.759 (0.081)
same,Mean Delta OD588 (stdev),S. mutans (ATCC#25175); 2% treatment,0.734 (0.131)
same,"Inhibition of bacterial acid production, in words",S. mutans (ATCC#25175),acid inhibition at all concentrations tested
"O=C([O-])CN(CCN(CC(=O)[O-])CC(=O)[O-])CC(=O)[O-].[Ca+2].[Na+].[Na+] [Trilon Ca, Ca EDTA]","Disruption of 48 hour saliva biofilms, reduction from the No Treatment control",48 hour saliva biofilms,−10%
"O=C(O)CN(CCN(CC(=O)O)CC(=O)O)CC(=O)O [EDTA, ethylenediaminetetraacetic acid]",Mean Delta OD588 (stdev),"S. mutans (ATCC#25175); 1% treatment, pH 7.0",0.283 (0.086)
same,"Inhibition of bacterial acid production, in words",S. mutans (ATCC#25175),no or little change demonstrating acid inhibiting effects
O=C(O)CCC(=O)O [succinic acid],Mean Delta OD588 (stdev),"S. mutans (ATCC#25175); 1% treatment, pH 7.4",0.323 (0.107)
same,"Inhibition of bacterial acid production, in words",S. mutans (ATCC#25175),no or little change demonstrating acid inhibiting effects
CCCCCCCCCCCCCCCC[n+]1ccccc1 [Cetylpyridinium chloride],% decrease in biofilm as compared to growth control (negative indicates increased biofilm),[1]; % treatment 0.070%,98%
same,% decrease in biofilm as compared to growth control (negative indicates increased biofilm),[2]; % treatment 0.070%,100%
